From patent publication US12493040B2, “Cancer detection method using sense of smell of nematode” (HIROTSU BIO SCIENCE INC., priority 2013, dated 2025)

Tested on: RNAi-treated eri-1 (mg366) nematodes
Experiment: RNAi screening of olfactory receptor genes: chemotaxis assay of RNAi-treated nematodes to odorants
Assay type: in vivo, Caenorhabditis elegans
Details: low concentration of attractant
Summary of the method: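 eri-1 (mg366) worms knocked down by feeding RNAi (Ahringer library) on IPTG/ampicillin NGM plates with E. coli for 4 days, then tested for chemotaxis, 30–50 worms per assay. Odorants at 1 μl of 10^−3 or 10^−4 dilution, or 1 and 5 μl undiluted. Hits scored by z score, thresholds ±1.96 (P<0.05) or ±0.96.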

For Cc1nc(C)c(C)s1 [trimethylthiazole], the chemotaxis index (Control nematodes) was 0.64 ± 0.015, the chemotaxis index (srh-10 RNAi-treated nematodes) was 0.88 and the chemotaxis index (srh-11 RNAi-treated nematodes) was 0.85. For the same molecule, the chemotaxis index (srh-15 RNAi-treated nematodes) was 0.91, the chemotaxis index (srh-16 RNAi-treated nematodes) was 0.49 and the chemotaxis index (srh-18 RNAi-treated nematodes) was 0.91. The chemotaxis index (srh-19 RNAi-treated nematodes) was 0.88, the chemotaxis index (srh-22 RNAi-treated nematodes) was 0.75 and the chemotaxis index (srh-23 RNAi-treated nematodes) was 0.78. The chemotaxis index (srh-24 RNAi-treated nematodes) was 0.92, the chemotaxis index (srh-25 RNAi-treated nematodes) was 0.95 and the chemotaxis index (srh-27 RNAi-treated nematodes) was 0.71. It also gave a chemotaxis index (srh-28 RNAi-treated nematodes) of 0.92, a chemotaxis index (srh-36 RNAi-treated nematodes) of 0.51 and a chemotaxis index (srh-37 RNAi-treated nematodes) of 0.87. It also gave a chemotaxis index (srh-39 RNAi-treated nematodes) of 0.45, a chemotaxis index (srh-40 RNAi-treated nematodes) of 0.73 and a chemotaxis index (srh-41 RNAi-treated nematodes) of 0.85. It also gave a chemotaxis index (srh-44 RNAi-treated nematodes) of 0.90, a chemotaxis index (srh-45 RNAi-treated nematodes) of 0.73 and a chemotaxis index (srh-46 RNAi-treated nematodes) of 0.83. For the same molecule, the chemotaxis index (srh-48 RNAi-treated nematodes) was 0.65, the chemotaxis index (srh-49 RNAi-treated nematodes) was 0.59 and the chemotaxis index (srh-50 RNAi-treated nematodes) was 0.84. It also gave a chemotaxis index (srh-51 RNAi-treated nematodes) of 0.64, a chemotaxis index (srh-52 RNAi-treated nematodes) of 0.55 and a chemotaxis index (srh-55 RNAi-treated nematodes) of 0.56. It also gave a chemotaxis index (srh-59 RNAi-treated nematodes) of 0.37, a chemotaxis index (srh-60 RNAi-treated nematodes) of 0.79 and a chemotaxis index (srh-61 RNAi-treated nematodes) of 0.70. For the same molecule, the chemotaxis index (srh-67 RNAi-treated nematodes) was 0.63, the chemotaxis index (srh-68 RNAi-treated nematodes) was 0.57 and the chemotaxis index (srh-69 RNAi-treated nematodes) was 0.75. The chemotaxis index (srh-70 RNAi-treated nematodes) was 0.78, the chemotaxis index (srh-71 RNAi-treated nematodes) was 0.85 and the chemotaxis index (srh-72 RNAi-treated nematodes) was 0.58. The chemotaxis index (srh-74 RNAi-treated nematodes) was 0.44, the chemotaxis index (srh-75 RNAi-treated nematodes) was 0.54 and the chemotaxis index (srh-77 RNAi-treated nematodes) was 0.52. The chemotaxis index (srh-79 RNAi-treated nematodes) was 0.42, the chemotaxis index (srh-80 RNAi-treated nematodes) was 0.39 and the chemotaxis index (srh-82 RNAi-treated nematodes) was 0.71. The chemotaxis index (srh-83 RNAi-treated nematodes) was 0.86, the chemotaxis index (srh-97 RNAi-treated nematodes) was 0.77 and the chemotaxis index (srh-99 RNAi-treated nematodes) was 0.65. For the same molecule, the chemotaxis index (srh-100 RNAi-treated nematodes) was 0.62, the chemotaxis index (srh-104 RNAi-treated nematodes) was 0.65 and the chemotaxis index (srh-105 RNAi-treated nematodes) was 0.66. The chemotaxis index (srh-109 RNAi-treated nematodes) was 0.76, the chemotaxis index (srh-111 RNAi-treated nematodes) was 0.37 and the chemotaxis index (srh-113 RNAi-treated nematodes) was 0.83. The chemotaxis index (srh-115 RNAi-treated nematodes) was 0.47, the chemotaxis index (srh-116 RNAi-treated nematodes) was 0.56 and the chemotaxis index (srh-118 RNAi-treated nematodes) was 0.73. It also gave a chemotaxis index (srh-119 RNAi-treated nematodes) of 0.71, a chemotaxis index (srh-120 RNAi-treated nematodes) of 0.72 and a chemotaxis index (srh-122 RNAi-treated nematodes) of 0.44. The chemotaxis index (srh-123 RNAi-treated nematodes) was 0.56, the chemotaxis index (srh-125 RNAi-treated nematodes) was 0.70 and the chemotaxis index (srh-128 RNAi-treated nematodes) was 0.62. The chemotaxis index (srh-129 RNAi-treated nematodes) was 0.69, the chemotaxis index (srh-130 RNAi-treated nematodes) was 0.70 and the chemotaxis index (srh-214 RNAi-treated nematodes) was 0.78. For the same molecule, the chemotaxis index (srh-216 RNAi-treated nematodes) was 0.73, the chemotaxis index (srh-217 RNAi-treated nematodes) was 0.60 and the chemotaxis index (srh-220 RNAi-treated nematodes) was 0.52. It also gave a chemotaxis index (srh-222 RNAi-treated nematodes) of 0.58, a chemotaxis index (srh-223 RNAi-treated nematodes) of 0.76 and a chemotaxis index (srh-227 RNAi-treated nematodes) of 0.76. It also gave a chemotaxis index (srh-229 RNAi-treated nematodes) of 0.69, a chemotaxis index (srh-233 RNAi-treated nematodes) of 0.38 and a chemotaxis index (srh-235 RNAi-treated nematodes) of 0.58. For the same molecule, the chemotaxis index (srh-236 RNAi-treated nematodes) was 0.64, the chemotaxis index (srh-239 RNAi-treated nematodes) was 0.84 and the chemotaxis index (srh-241 RNAi-treated nematodes) was 0.85. It also gave a chemotaxis index (srh-243 RNAi-treated nematodes) of 0.63, a chemotaxis index (srh-244 RNAi-treated nematodes) of 0.76 and a chemotaxis index (srh-247 RNAi-treated nematodes) of 0.54. The chemotaxis index (srh-250 RNAi-treated nematodes) was 0.58, the chemotaxis index (srh-251 RNAi-treated nematodes) was 0.64 and the chemotaxis index (srh-252 RNAi-treated nematodes) was 0.64. For the same molecule, the chemotaxis index (srh-258 RNAi-treated nematodes) was 0.75, the chemotaxis index (srh-261 RNAi-treated nematodes) was 0.72 and the chemotaxis index (srh-264 RNAi-treated nematodes) was 0.74. It also gave a chemotaxis index (srh-266 RNAi-treated nematodes) of 0.25, a chemotaxis index (srh-274 RNAi-treated nematodes) of 0.60 and a chemotaxis index (srh-275 RNAi-treated nematodes) of 0.53. For the same molecule, the chemotaxis index (srh-276 RNAi-treated nematodes) was 0.59, the chemotaxis index (srh-277 RNAi-treated nematodes) was 0.65 and the chemotaxis index (srh-279 RNAi-treated nematodes) was 0.61. For the same molecule, the chemotaxis index (srh-281 RNAi-treated nematodes) was 0.55, the chemotaxis index (srh-282 RNAi-treated nematodes) was 0.79 and the chemotaxis index (srh-283 RNAi-treated nematodes) was 0.56. It also gave a chemotaxis index (srh-284 RNAi-treated nematodes) of 0.59, a chemotaxis index (srh-291 RNAi-treated nematodes) of 0.91 and a chemotaxis index (srh-292 RNAi-treated nematodes) of 0.78. The chemotaxis index (srh-293 RNAi-treated nematodes) was 0.82, the chemotaxis index (srh-297 RNAi-treated nematodes) was 0.56 and the chemotaxis index (srh-298 RNAi-treated nematodes) was 0.82. It also gave a chemotaxis index (srh-308 RNAi-treated nematodes) of 0.30.
